The values that follow are results of earlier work, collected in patent US20120237901A1, “Denture Adhesive Remover for Intraoral and Extraoral Use” (priority 2011, published 2012).

Data set [1] concerns mold. The settings on record: 5% solution of acetic acid in water; reportedly.
For data set [2], the system named is bacteria. To be noted: 5% solution of acetic acid in water; reportedly.

The structures appear in SMILES notation.

Regarding `CC(=O)O` [acetic acid], in data set [1], the effective against mold was 90%. The effective against bacteria in data set [2] is given as 99.9%.
